The values that follow come from patent publication US20230148258A1, “SPERMIDINE-SUPPLEMENTED FOOD PRODUCTS” (KALIN HEALTH LLC, priority 2020, published 2023).

Data set [1] is described as follows: NOAEL (No Observed Adverse Effect Level), Til et al. 1997. From the text:
Food and Drug Administration GRAS Notice No. 889 Spermidine-Rich Wheat Germ Extract, the entirety of which is incorporated herein by reference. […] Til et al., Food and Chemical Toxicology 1997, v. 35, p. 337-348.

The conditions of data set [2]: Til et al., Food and Chemical Toxicology 1997; cited from earlier work.
The conditions of data set [3]: animal models; 10 minutes after; cited from earlier work.

Take `NCCCCNCCCN` [spermidine]: the “NOAEL expressed for a 70 kg person” value in data set [1] is given as roughly 470 mg/day. In data set [2], the “NOAEL (No Observed Adverse Effect Level)” value is given as 83 mg/kg body weight/day. Also, the “fraction of amount that reached the lumen found in the portal vein” value in data set [3] is reported as “Approximately 70%”.

`NCCCNCCCCNCCCN` [spermine]: the “NOAEL expressed for a 70 kg person” value in data set [1] is recorded as roughly 106 mg/day. Moreover, the “NOAEL (No Observed Adverse Effect Level)” value in data set [2] was 1.52 mg/kg body weight/day. Moreover, the “fraction of amount that reached the lumen found in the portal vein” value in data set [3] is reported as “Approximately 70%”.
